# Laboratory results as given in US20140371280A1, “Method of treating diabetic peripheral neuropathy through amendment of pre-neuronal diabetic coagulative micro-angiopathy and neuronal deficiency of mitochondrial ATP production, and through induction of neuronal regeneration” (priority 2013, published 2014).
# Tests used:
# platelet aggregation = details: yes/no; cited from earlier work
# arterioles = details: yes/no; cited from earlier work
# neoangiogenesis = details: yes/no; cited from earlier work
# insulin sensitization = details: yes/no; cited from earlier work
# [1] = system: diabetic peripheral neuropathy; experiment: Clinical case: diabetic person with DPN of stocking-glove pattern and maceration in the big toe; format: in vivo, human patient
# Excerpt: An elderly patient of DPN with advanced DM of hyperglycemia, hypoinsulinemia, and HgbA1C elevated to 7.5%, presented themself with a typical stocking-glove pattern of DPN accompanied by maceration in the left big toe. A bitherapy of SAG+ALC halted their DPN.
# The present DPN-relieving invention includes mainly four parts: (1) rescue with SAG-ALC of the tormenting DPN distress of pain, cold sensation, and maceration in the stocking-glove pattern; (2) expansion of the SAG-ALC regimen to include ALA; (3) extended use of the SAG+ALC+ALA principle for prevention of recurrence and maintenance; and (4) an extended use of the principle for induction of neuronal regeneration with SAG+ALC+ALA. • (1) Prompt halt of DPN symptoms with the application of SAG in order to amend the pre-neuronal coagulative microangiopathy and with ALC to amend the neuronal mitochondrial fatty acid transport across the carnithine window so as to help generating ATP through β-oxidation of fatty acids: the SAG+ALC principle. • A person with a 10-year history of DM developed signs and symptoms of DPN of the stocking-glove pattern and maceration in the big toe in the depth. […] The dosage could be 100 to 200 mg three times a day unless contraindicated by hemorrhagic diathesis. They were relieved of the distress but limitedly for 2-3 hours of post-dose. The patient was greatly depressed to learn that neuronal loss that could have already taken place might not be recovered with the SAG (Srinivasan et al. 2000)). • ALC was added at 1500 mg per day. The dosage range could be 500 to 4500 mg per day in the hope of eventual induction of neuronal regeneration (Tagliatela et al. 1991; Ishii et al. 2000). […] Thus, the SAG and ALC appeared to work synergistically. Within 2 months of this combination treatment, the soft swelling due to maceration in the depth of the big toe resolved (FIG. 1e). This ALC-SAG combination therapy may be continued as long as one's DPN status persists. […]
Compound,Anti-platelet Aggregation (platelet aggregation),Arteriolar dilation (arterioles),Neo-angiogenesis (neoangiogenesis),Insulin-sensitization (insulin sensitization),"Duration of relief of distress post-dose ([1]; SAG 600 mg per day, monotherapy) [h]","Duration of halt of DPN's pain and cold intolerance per dose ([1]; each 200 mg dose of SAG, monotherapy) [h]","Effect on DPN symptoms (pain, cold sensation, numbness) ([1]; patient, SAG 600 mg, ALC 1500 mg, ALA 600 mg per day, EPR 100 mg three times a day, as combined)"
"CC/C=C\C/C=C\C/C=C\C/C=C\C/C=C\CCCC(=O)OCC [Epadel, ethyl icosapentate]",Yes,Yes,No,No,–,–,–
"CC1CNc2c(cccc2S(=O)(=O)N[C@@H](CCCNC(=N)N)C(=O)N2CC[C@@H](C)C[C@@H]2C(=O)O)C1 (some centres unmarked) [Novastan, argatroban hydrate]",Yes,Yes,No,No,–,–,–
"O=C1CCc2cc(OCCCCc3nnnn3C3CCCCC3)ccc2N1 [Pletaal, cilostazol]",Yes,Yes,No,No,–,–,–
"COc1cccc(CCc2ccccc2OCC(CN(C)C)OC(=O)CCC(=O)O)c1 (centres unmarked) [SAG, sarpogrelate]",Yes,Yes,Yes,Yes,2 to 3,3 to 4,appreciably but passingly alleviated
Heparin,Yes,No,No,No,–,–,–
